Laboratory results from patent US10519115B2, “Antidiabetic tricyclic compounds” (Merck Sharp & Dohme Corp., priority 2013, dated 2019).

What was measured:
Format in all cases: cell-based
[1] = biological target: T1, Human GPR40 (Homo sapiens, UniProt O14842); assay: Inositol Phosphate Turnover (IP1) Assay 2 (HEK cells stably expressing human GPR40, CisBio IP-One kit); design: expressed in transfected cells; host or cells: HEK cells stably expressing the aequorin reporter; conditions: HEK cells stably expressing human GPR40, 384-well
T1 sequence (O14842 whole entry): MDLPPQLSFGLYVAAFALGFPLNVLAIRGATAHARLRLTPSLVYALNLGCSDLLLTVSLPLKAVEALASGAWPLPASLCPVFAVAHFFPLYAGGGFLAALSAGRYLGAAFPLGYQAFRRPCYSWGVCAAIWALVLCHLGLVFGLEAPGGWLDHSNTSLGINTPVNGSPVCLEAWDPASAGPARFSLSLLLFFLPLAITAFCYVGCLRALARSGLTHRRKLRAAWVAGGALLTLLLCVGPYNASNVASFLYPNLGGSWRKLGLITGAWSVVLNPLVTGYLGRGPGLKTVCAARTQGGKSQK
Protocol: (§1) Human and mouse GPR40 stable cell-lines were generated in CHO cells stably expressing NFAT BLA (Beta-lactamase). A human GPR40 stable cell-line was generated in HEK cells stably expressing the aequorin expressing reporter. The expression plasmids were transfected using lipofectamine (Life Technologies) following manufacturer's instructions. Stable cell-lines were generated following drug selection.
The assay was performed in 384-well format. HEK cells stably expressing human GPR40 were plated at 15,000 cells per well in growth medium (DMEM/10% fetal calf serum). Cell plates were then incubated 16 hours at 37 degrees in a 5% CO2 incubator.
Measurement of Inositol Phosphate Turnover (IP1) was performed using the CisBio IP-One kit (Part number 62IPAPEB). After the 16 hour incubation, the cells were washed with HEPES buffer and 10 ul of stimulation buffer (prepared as described in the kit) was added to each well. In a separate plate, compounds were diluted in DMSO (400-fold over the final concentration in the assay well) and 25 nl was acoustically transferred to the appropriate well in the assay cell plate. The plates were then incubated for 60 minutes at 37 degrees. 10 ul of detection buffer (also prepared as described in the IP-One kit) was added to each well and the plates were incubated for 60 minutes in the dark. The plates were then read in a Perkin Elmer EnVision or equivalent reader able to measure FRET. Fluorescent ratio of emission at 665 and 620 nm was then converted to IP1 concentration by back calculating from an IP1 standard curve prepared at the time of the assay.

[2] = biological target: T1, Human GPR40; assay: FLIPR assay (agonist-induced calcium mobilization, GPR40/CHO NFAT BLA cells); design: expressed in transfected cells
Protocol: as §1
FLIPR (Fluorimetric Imaging Plate Reader, Molecular Devices) assays were performed to measure agonist-induced calcium mobilization of the stable clones. For the FLIPR assay, one day before assay, GPR40/CHO NFAT BLA cells were seeded into black-wall-clear-bottom 384-well plates (Costar) at 1.4×10e4 cells/20 μL medium/well. The cells were incubated with 20 μl/well of the assay buffer (HBSS, 0.1% BSA, 20 mM HEPES, 2.5 mM probenecid, pH 7.4) containing 8 μM fluo-4, AM, 0.08% pluronic acid at room temperature for 100 minutes. Fluorescence output was measured using FLIPR. Compounds were dissolved in DMSO and diluted to desired concentrations with assay buffer. 13.3 μL/well of compound solution was added.

[3] = biological target: T1, Human GPR40; assay: Inositol Phosphate Turnover Assay 1 (HEK cells stably expressing human GPR40); design: expressed in transfected cells; host or cells: HEK cells stably expressing the aequorin reporter; conditions: HEK cells stably expressing human GPR40, 96-well, 3H-inositol; read-out: Human GPR40 IP1 Assay 1, EC50
Protocol: as §1
The assay was performed in 96-well format. HEK cells stably expressing human GPR40 were plated to be 60-80% confluent within 72 h. After 72 h, the plates were aspirated and the cells washed with inositol-free DMEM (ICN). The wash media was replaced with 150 μL of 3H-inositol labeling media (inositol-free media containing 0.4% human albumin or 0.4% mouse albumin, 1× pen/strep antibiotics, glutamine, 25 mM HEPES to which was added 3H-myo-inositol NEN #NET114A 1 mCi/mL, 25 Ci/mmol diluted 1:150 in loading media with a final specific radioactivity of 1 μCi/150 μL). Alternatively, the human and mouse albumin can be added after the overnight labeling step before the addition of LiCl.
The assay was typically run the next day after 18 h labeling. On the day of the assay, 5 μL of 300 mM LiCl was added to all wells and incubated at 37 degrees for 20 min. 0.75 μL of 200× compounds were added and incubated with the cells for 60 min at 37 degrees. The media was then aspirated off and the assay terminated with the addition of 60 μL 10 mM formic acid. The cells were lysed for 60 min at room temperature. 15-30 μL of lysate was mixed with 70 μL/1 mg YSi SPA beads (Amersham) in clear bottom Isoplates. The plates were shaken for 2 h at room temperature. Beads were allowed to settle and the plates were counted in the Wallac Microbeta.

Structure (SMILES)	EC50 [1] [nM]	EC50 [2] [nM]	EC50 [3] [nM]
Cc1cc(OC2CC(C(C)(O)CO)C2)cc(C)c1-c1cc(COc2cc3c(cn2)C2C(C3)C2C(=O)O)c(F)cc1F (single isomer, unassigned) [Compound-21]	1		
Cc1cc(OC2CC(C(C)(O)CO)C2)cc(C)c1-c1cc(COc2cc3c(cn2)C2C(C3)C2C(=O)O)c(F)cc1F (single isomer, unassigned) [Compound-22]	0.7		
C[C@]1(O)C[C@@H](COc2ccc(-c3cc(COc4cc5c(cn4)[C@H]4[C@@H](C5)[C@@H]4C(=O)O)c(F)cc3C(F)(F)F)cc2F)C1 [Compound-1, (5aR,6S,6aS)-3-{[3′,4-difluoro-4′-(((1s,3s)-3-hydroxy-3-methylcyclobutyl)methoxy)-6-(trifluoromethyl)-[1,1′-biphenyl]-3-yl]methoxy}-5,5a,6,6a-tetrahydrocyclopropa[4,5]cyclopenta[1,2-c]pyridine-6-carboxylic acid]		7	11
C[C@]1(O)C[C@@H](COc2c(F)cc(-c3cc(COc4cc5c(cn4)[C@H]4[C@@H](C5)[C@@H]4C(=O)O)c(F)cc3C(F)(F)F)cc2F)C1 [Compound-2, (5aR,6S,6aS)-3-{[3′,4,5′-trifluoro-4′-(((1s,3s)-3-hydroxy-3-methylcyclobutyl)methoxy)-6-(trifluoromethyl)-[1,1′-biphenyl]-3-yl]methoxy}-5,5a,6,6a-tetrahydrocyclopropa[4,5]cyclopenta[1,2-c]pyridine-6-carboxylic acid]		5.8	6.9
C[C@]1(O)CC[C@H](Oc2c(F)cc(-c3cc(COc4cc5c(cn4)[C@H]4[C@@H](C5)[C@@H]4C(=O)O)c(F)cc3C(F)(F)F)cc2F)CC1 [Compound-3, (5aR,6S,6aS)-3-{[3′,4,5′-trifluoro-4′-(((1r,4r)-4-hydroxy-4-methylcyclohexyl)oxy)-6-(trifluoromethyl)-[1,1′-biphenyl]-3-yl]methoxy}-5,5a,6,6a-tetrahydrocyclopropa[4,5]cyclopenta[1,2-c]pyridine-6-carboxylic acid]		3.7	14
N#Cc1ccc(-c2ccc(-c3cc(COc4cc5c(cn4)[C@H]4[C@@H](C5)[C@@H]4C(=O)O)c(F)cc3C(F)(F)F)cc2)cc1 [Compound-9, (5aR,6S,6aS)-3-((4″-cyano-4-fluoro-6-(trifluoromethyl)-[1,1′:4′,1″-terphenyl]-3-yl)methoxy)-5,5a,6,6a-tetrahydrocyclopropa[4,5] cyclopenta[1,2-c]pyridine-6-carboxylic acid]			8.9
CS(=O)(=O)c1ccc(-c2ccc(-c3cc(COc4cc5c(cn4)[C@H]4[C@@H](C5)[C@@H]4C(=O)O)c(F)cc3C(F)(F)F)cc2)cc1 [Compound-10, (5aR,6S,6aS)-3-((4-fluoro-4″-(methylsulfonyl)-6-(tri-fluoromethyl)-[1,1′;4′,1″- terphenyl]-3-yl)methoxy)-5,5a,6,6a-tetrahydrocyclo-propa[4,5]cyclpenta [1,2-c]pyridine-6-carboxylic acid]			2.9
Cc1nc(OC[C@H]2C[C@@](C)(O)C2)ccc1-c1cc(COc2cc3c(cn2)[C@H]2[C@@H](C3)[C@@H]2C(=O)O)c(F)cc1C(F)(F)F [Compound-14, (5 aR,6S,6aS)-3-((2-fluoro-5-(6-(((1s,3s)-3-hydroxy-3-methylcyclobutyl)methoxy)-2-methylpyridin-3-yl)-4-(trifluoromethyl)benzyl)oxy)-5,5a,6,6a-tetrahydrocyclopropa-[4,5]cyclopenta[1,2-c]pyridine-6-carboxylic acid]	1.2		6.3
Cc1cc(O[C@H]2C[C@H](S(C)(=O)=O)C2)cc(C)c1-c1cc(COc2cc3c(cn2)[C@H]2[C@@H](C3)[C@@H]2C(=O)O)c(F)cc1F [Compound-15]	1.2		6.7
Cc1cc(-c2nnn(CC(C)(C)O)n2)cc(C)c1-c1cc(COc2cc3c(cn2)[C@H]2[C@@H](C3)[C@@H]2C(=O)O)c(F)cc1F [Compound-16, (5aR,6S,6aS)-3-((4,6-difluoro-4′-(2-(2-hydroxy-2-methylpropyl)-2H-tetrazol-5-yl)-2′,6′-dimethyl-[1,1′-biphenyl]-3-yl)methoxy)-5,5a,6,6a-tetrahydrocyclopropa[4,5]cyclopenta[1,2-c]pyridine-6-carboxylic acid]	1		9.4
Cc1cc(-c2ncn(CC(C)(C)O)n2)cc(C)c1-c1cc(COc2cc3c(cn2)[C@H]2[C@@H](C3)[C@@H]2C(=O)O)c(F)cc1F [Compound-17, (5aR,6S,6aS)-3-((4,6-difluoro-4′-(1-(2-hydroxy-2-methylpropyl)-1H-1,2,4-triazol-3-yl)-2′,6′-dimethyl-[1,1′-biphenyl]-3-yl)methoxy)-5,5a,6,6a-tetrahydrocyclopropa[4,5]cyclopenta[1,2-c]pyridine-6-carboxylic acid]	0.8		
Cc1nc(N2Cc3cn(CC(C)(C)O)nc3C2)ccc1-c1cc(COc2cc3c(cn2)[C@H]2[C@@H](C3)[C@@H]2C(=O)O)c(F)cc1C(F)(F)F [Compound-18, (5aR,6S,6aS)-3-((2-fluoro-5-(6-(2-(2-hydroxy-2-methylpropyl)pyrrolo[3,4-c]pyrazol-5(2H,4H,6H)-yl)-2-methylpyridin-3-yl)-4-(trifluoromethyl)benzyl)oxy)-5,5a,6,6a-tetrahydrocyclopropa[4,5]cyclopenta[1,2-c]pyridine-6-carboxylic acid]	1		7.6
Cc1nc(OC2CC(S(C)(=O)=O)C2)ccc1-c1cc(COc2cc3c(cn2)[C@H]2[C@@H](C3)[C@@H]2C(=O)O)c(F)cc1C(F)(F)F (stereo partly shown) [Compound-19]	2.1		

The next lines start with the values.

EC50 [1] [nM]	EC50 [2] [nM]	EC50 [3] [nM]	Structure (SMILES)
1			O=C(O)[C@H]1[C@@H]2Cc3cc(OCc4cc(-c5ccc(OC[C@H]6C[C@@](O)(CO)C6)cc5Cl)c(F)cc4F)ncc3[C@@H]21 (single isomer, unassigned) [Compound-23]
1.3			O=C(O)[C@H]1[C@@H]2Cc3cc(OCc4cc(-c5ccc(OC[C@H]6C[C@](O)(CO)C6)cc5Cl)c(F)cc4F)ncc3[C@@H]21 (single isomer, unassigned) [Compound-24]
1.9			Cc1cc(OC[C@H]2C[C@@](O)(CO)C2)cc(C)c1-c1cc(COc2cc3c(cn2)[C@H]2[C@@H](C3)[C@@H]2C(=O)O)c(F)cc1F (single isomer, unassigned) [Compound-25]
1.6			Cc1cc(OC[C@H]2C[C@](O)(CO)C2)cc(C)c1-c1cc(COc2cc3c(cn2)[C@H]2[C@@H](C3)[C@@H]2C(=O)O)c(F)cc1F (single isomer, unassigned) [Compound-26]
3.1			Cc1cc(OC[C@H]2C[C@](C)(O)[C@](C)(O)C2)cc(C)c1-c1cc(COc2cc3c(cn2)[C@H]2[C@@H](C3)[C@@H]2C(=O)O)c(F)cc1F [Compound-20, (5aR,6S,6aS)-3-((4′-(((1s,3R,4S)-3,4-dihydroxy-3,4-dimethylcyclopentyl)methoxy)-4,6-difluoro-2′,6′-dimethyl-[1,1′-biphenyl]-3-yl)methoxy)-5,5a,6,6a-tetrahydrocyclopropa-[4,5]cyclopenta[1,2-c]pyridine-6-carboxylic acid]
